Experimental data: patent publication US10800788B2, “4-(aryl)-N-(3-alkoxyfuro[2,3-b]pyrazin-2-yl)-piperazine-1-carboxamide derivative and antiproliferative effect thereof” (Dongguk University Industry-Academic Cooperation Foundation, priority 2016, dated 2020)

Experiments:
HUVEC = assay: Cell growth inhibition experiment (SRB), HUVEC; format: cell-based, human; conditions: Homo sapiens, HUVEC, 96 h, 96 hours incubation, read-out: IC50 (μM) […]
Description: (§1) The 4-(aryl)-N-(3-alkoxyfuro[2,3-b]pyrazin-2-yl)-piperazine-1-carboxamide derivative compounds synthesized according to Examples 1 to 60 of the present invention were treated with various human tissue-derived cancer cell lines cultured according to Experimental Example 1, and thus the inhibitory effect of the growth of human cancer cells was confirmed. The cell growth inhibition experiment was conducted using the sulforhodamine B (SRB) technique (Skehan et al., J. National Cancer Institute, 1990, 82: 1107-1112). Specifically, each cell line was seeded in a 96-well plate at a density of 2 to 3×10^3 cells/well, cultured overnight, and then treated with the 4-(aryl)-N-(3-alkoxyfuro[2,3-b]pyrazin-2-yl)-piperazine-1-carboxamide derivative compounds of the present invention. The experiment was repeated 3 times for each compound. Cells treated with each compound were additionally incubated for 96 hours, fixed with 10% trichloroacetic acid (TCA), and then left at 4° C. for 1 hour. The resultant was washed 3 times with distilled water. Thereafter, each cell was treated with 0.4% sulforhodamine B dissolved in 1% acetic acid, stained for 30 minutes, and then washed 4 times with 1% acetic acid. The resultant was dried in the air. After shaking the resultant in Tris solution (10 mM) for 5 minutes, the absorbance was measured at 530 nm using a Benchmark Plus Microplate reader (Bio-Rad Laboratories, Hercules, Calif.).
(§2) In order to convert the OD530 value to the number of viable cells per each well, the measured OD530 value was compared to the standard OD530-vs.-cell number curve of each cell line. The percent survival was calculated using the following formula: % survival=Nlive cells(test)/Nlive cells(control)×100

A549 = assay: Cell growth inhibition experiment (SRB), A549; format: cell-based; conditions: Homo sapiens, A549, 96 h, 96 hours incubation, read-out: IC50 (μM) for cancer cell line A549
Description: as §1, §2

[1] = test system: PANC-1 (pancreatic cancer) cell line; assay: Cell growth inhibition experiment (SRB), PANC-1; format: cell-based; conditions: Homo sapiens, PANC-1, 96 h, 96 hours incubation
Description: (§3) The cell lines below were used in order to confirm the efficacy of the compounds synthesized in Examples 1 to 60. Human PANC-1 (pancreatic cancer) and MDA-MB-231 (breast cancer) cell lines were obtained from the American Type Culture Collection (ATCC; Manassas, Va.); and HN31 (head and neck cancer) and UMRC2 (kidney cancer) cell lines were secured from the United States National Institutes of Health (Bethesda, Md.). The MDA-MB-231, UMRC2, HN31, and PANC-1 cell lines were cultured in Dulbecco modified Eagle medium (DMEM; Invitrogen, Carlsbad, Calif.) containing FBS (10%), HEPES (10 mM), penicillin (100 U/mL), and streptomycin (100 μg/mL). All cell lines were cultured in an incubator (37° C., 5% CO2).
as §1, §2

[2] = test system: MDA-MB-231 (breast cancer) cell line; assay: Cell growth inhibition experiment (SRB), MDA-MB-231; format: cell-based, human; conditions: Homo sapiens, MDA-MB-231, 96 h, 96 hours incubation
Description: as §3, §1, §2

[3] = test system: HN31 (head and neck cancer) cell line; assay: Cell growth inhibition experiment (SRB), HN31; format: cell-based, human; conditions: Homo sapiens, 96 h, 96 hours incubation
Description: as §3, §1, §2

HT29 = assay: Cell growth inhibition experiment (SRB), HT29; format: cell-based, human; conditions: Homo sapiens, HT-29, 96 h, 96 hours incubation, read-out: IC50 (μM) for cancer cell line HT29
Description: as §1, §2

HEK293 = assay: Cell growth inhibition experiment (SRB), HEK293; format: cell-based, human; conditions: Homo sapiens, HEK293, 96 h, 96 hours incubation, read-out: IC50 (μM) for cancer cell line HEK293
Description: as §1, §2

SK-OV-3 = assay: Cell growth inhibition experiment (SRB), SK-OV-3; format: cell-based, human; conditions: Homo sapiens, SK-OV-3, 96 h, 96 hours incubation, read-out: IC50 (μM) for cancer cell line SK-OV-3
Description: as §1, §2

[4] = test system: UMRC2 (kidney cancer) cell line; assay: Cell growth inhibition experiment (SRB), UMRC2; format: cell-based, human; conditions: Homo sapiens, UMRC2, 96 h, 96 hours incubation
Description: as §3, §1, §2

| IC50 (A549) [µM] | IC50 [1] [µM] | IC50 [2] [µM] | IC50 [3] [µM] | IC50 (HT29) [µM] | IC50 (SK-OV-3) [µM] | IC50 [4] [µM] | SMILES | IC50 (HUVEC) [µM] | IC50 (HEK293) [µM] |
| --- | --- | --- | --- | --- | --- | --- | --- | --- | --- |
| < 2.5 | < 2.5 | < 2.5 | < 2.5 | < 2.5 | < 2.5 | < 2.5 | COc1nc2occc2nc1NC(=O)N1CCN(c2cc(C(F)(F)F)cc(C(F)(F)F)c2)CC1 [Example 9, 4-(3,5-Bis(trifluoromethyl)phenyl)-N-(3-methoxyfuro[2,3-b]pyrazin-2-yl)piperazine-1-carboxamide] | < 2.5 | < 2.5 |
| 0.57 | 0.41 | 0.43 | 0.68 | 1.92 | 1.93 | 0.68 | COc1nc2oc(Cl)cc2nc1NC(=O)N1CCN(c2cc(F)cc(F)c2)CC1 [Example 47, N-(6-Chloro-3-methoxyfuro[2,3-b]pyrazin-2-yl)-4-(3,5-difluorophenyl)piperazine-1-carboxamide] | 1.87 | 0.63 |
| < 2.5 | 1.32 | 1.12 | 2.35 | < 2.5 | < 2.5 | 1.72 | COc1nc2occc2nc1NC(=O)N1CCN(c2cc(C)cc(C)c2)CC1 [Example 5, 4-(3,5-Dimethylphenyl)-N-(3-methoxyfuro[2,3-b]pyrazin-2-yl)piperazine-1-carboxamide] | < 2.5 | < 2.5 |
| < 2.5 | < 2.5 | < 2.5 | < 2.5 | < 2.5 | < 2.5 | < 2.5 | CCOc1nc2oc(C)cc2nc1NC(=O)N1CCN(c2cc(F)cc(C(F)(F)F)c2)CC1 [Example 38, N-(3-Ethoxy-6-methylfuro[2,3-b]pyrazin-2-yl)-4-(3-fluoro-5-(trifluoromethyl)phenyl)piperazine-1-carboxamide] | < 2.5 | < 2.5 |
| 1.39 | 0.32 | 0.44 | 1.63 | < 2.5 | < 2.5 | 0.52 | CCOc1nc2oc(C)cc2nc1NC(=O)N1CCN(c2cc(C)cc(OC)c2)CC1 [Example 32, N-(3-Ethoxy-6-methylfuro[2,3-b]pyrazin-2-yl)-4-(3-methoxy-5-methylphenyl)piperazine-1-carboxamide] | < 2.5 | 1.12 |
| 1.86 | 1.88 | 1.68 | 1.78 | < 2.5 | < 2.5 | 1.32 | CCOc1nc2oc(Cl)cc2nc1NC(=O)N1CCN(c2cc(OC)cc(OCCN(C)C)c2)CC1 [Example 54, N-(6-Chloro-3-ethoxyfuro[2,3-b]pyrazin-2-yl)-4-(3-(2-(dimethylamino)ethoxy)-5-methoxyphenyl)piperazine-1-carboxamide] | 1.75 | 1.65 |
| < 2.5 | < 2.5 | 0.24 | < 2.5 | < 2.5 | < 2.5 | 0.44 | CCOc1nc2occc2nc1NC(=O)N1CCN(c2cc(C)cc(F)c2)CC1 [Example 16, N-(3-Ethoxyfuro[2,3-b]pyrazin-2-yl)-4-(3-fluoro-5-methylphenyl)piperazine-1-carboxamide] | < 2.5 | < 2.5 |
| 1.32 | 0.12 | 0.45 | 0.36 | 1.12 | 1.12 | 0.36 | CCOc1nc2oc(C)cc2nc1NC(=O)N1CCN(c2cc(C)cc(F)c2)CC1 [Example 36, N-(3-Ethoxy-6-methylfuro[2,3-b]pyrazin-2-yl)-4-(3-fluoro-5-methylphenyl)piperazine-1-carboxamide] | 1.12 | 1.32 |
| 0.24 | 0.36 | 0.25 | 0.36 | 0.62 | 0.22 | 1.63 | CCOc1nc2occc2nc1NC(=O)N1CCN(c2cccc(OC(F)(F)F)c2)CC1 [Example 20, N-(3-Ethoxyfuro[2,3-b]pyrazin-2-yl)-4-(3-(trifluoromethoxy)phenyl)piperazine-1-carboxamide] | 0.21 | 0.12 |
| 1.87 | 1.68 | 1.18 | 1.36 | < 2.5 | < 2.5 | 0.68 | CCOc1nc2oc(Cl)cc2nc1NC(=O)N1CCN(c2cc(C)cc(OC)c2)CC1 [Example 52, N-(6-Chloro-3-ethoxyfuro[2,3-b]pyrazin-2-yl)-4-(3-methoxy-5-methylphenyl)piperazine-1-carboxamide] | 1.62 | 1.74 |
| 0.87 | 0.44 | 0.12 | < 2.5 | 0.36 | 0.12 | 0.36 | COc1cc(OCCN(C)C)cc(N2CCN(C(=O)Nc3nc4cc(C)oc4nc3OC)CC2)c1 [Example 24, 4-(3-(2-(Dimethylamino)ethoxy)-5-methoxyphenyl)-N-(3-methoxy-6-methylfuro[2,3-b]pyrazin-2-yl)piperazine-1-carboxamide] | < 2.5 | 0.25 |
| < 2.5 | < 2.5 | < 2.5 | < 2.5 | < 2.5 | < 2.5 | < 2.5 | COc1nc2oc(C)cc2nc1NC(=O)N1CCN(c2cc(F)cc(C(F)(F)F)c2)CC1 [Example 28, 4-(3-Fluoro-5-(trifluoromethyl)phenyl)-N-(3-methoxy-6-methylfuro[2,3-b]pyrazin-2-yl)piperazine-1-carboxamide] | < 2.5 | < 2.5 |
| < 2.5 | 1.58 | 0.32 | 1.45 | < 2.5 | < 2.5 | 1.68 | CCOc1nc2oc(Cl)cc2nc1NC(=O)N1CCN(c2cc(OC)cc(OC)c2)CC1 [Example 51, N-(6-Chloro-3-ethoxyfuro[2,3-b]pyrazin-2-yl)-4-(3,5-dimethoxyphenyl)piperazine-1-carboxamide] | < 2.5 | < 2.5 |
| < 2.5 | < 2.5 | 0.56 | < 2.5 | < 2.5 | < 2.5 | 1.13 | COc1nc2oc(C)cc2nc1NC(=O)N1CCN(c2cc(F)cc(F)c2)CC1 [Example 27, 4-(3,5-Difluorophenyl)-N-(3-methoxy-6-methylfuro[2,3-b]pyrazin-2-yl)piperazine-1-carboxamide] | < 2.5 | < 2.5 |
| 0.44 | 0.51 | 0.15 | 0.68 | 1.28 | 2.13 | 0.36 | CCOc1nc2oc(C)cc2nc1NC(=O)N1CCN(c2cc(F)cc(F)c2)CC1 [Example 37, 4-(3,5-Difluorophenyl)-N-(3-ethoxy-6-methylfuro[2,3-b]pyrazin-2-yl)piperazine-1-carboxamide] | 1.25 | 1.63 |
| 1.68 | 0.56 | 0.48 | 0.45 | 1.67 | 1.91 | 0.32 | CCOc1nc2oc(Cl)cc2nc1NC(=O)N1CCN(c2cc(F)cc(OC)c2)CC1 [Example 53, N-(6-Chloro-3-ethoxyfuro[2,3-b]pyrazin-2-yl)-4-(3-fluoro-5-methoxyphenyl)piperazine-1-carboxamide] | 1.88 | 1.98 |
